Measurements taken from US8404650B2, “Methods of treating cancer with doxazolidine and prodrugs thereof” (priority 2005, dated 2013).
Like-named read-outs stand apart in the source and are kept apart here.

What was measured:
[1] = tested on: liver cancer; settings: circumstantial data; treatment of liver cancer; cited from earlier work
[2] = Hydrolysis of Doxaz to Doxorubicin in buffers (HPLC); format: physicochemical
Method: Doxaz stability in DMSO. Doxaz (22 mg, 40 μmol) was dissolve in 1 mL of DMSO-d6 (stored over activated 4 Å molecular sieves) and analyzed for purity by 500 MHz ^1H NMR. After a 10× dilution with DMSO to a concentration of 4 mM, the stability of Doxaz was then followed by HPLC, observing the relative peak area of the Doxaz peak at 6.6 min with constant injection volume. Doxaz hydrolyzed at a rate of <2% per day in DMSO. Doxaz stability in buffers. HPLC buffer, pH 7.4, 20 mM TEAA, was used for the measurement of hydrolysis of Doxaz. The buffer's pH was adjusted as needed with either triethyl amine or acetic acid to pH 10.4, 9.0, 6.0 and 5.0 with one sample left unchanged at pH 7.4. A volume of 1950 μL of each of these solutions was added to a conical vial and then cooled to 14° C. 50 μL of a 4 mM solution of Doxaz was added to each tube and hydrolysis was followed by HPLC with injections every 10 min. The pH of the buffers was measured before the addition of drug and 1.5 h after the start of hydrolysis.
Both DoxF and Doxaz are relatively stable in dry chloroform and dry DMSO over a period of days. In dry DMSO, Doxaz hydrolyzes to Doxorubicin at less than 2% per day at ambient temperature. In aqueous medium, DoxF is very hydrolytically unstable with respect to formation of Doxaz, and Doxaz is hydrolytically unstable with respect to formation of Doxorubicin. […] Consequently, HPLC was used to monitor the kinetics of hydrolysis of Doxaz to Doxorubicin at 14° C. as a function of pH. […] The hydrolysis was too rapid to measure the rate at 37° C. Extrapolation using the rough rule that the rate will double for every 10° C. increase in temperature, gives an estimation of the half-life at pH 7.4 and 37° C. of 3 to 4 min. The rate constant increases with decreasing pH except for the transition from pH 10.4 to pH 9.0 where the rate constant decreases slightly. At pH 10.5 the solution appears purple, indicative of deprotonation at one of the hydroquinone functional groups. […] The higher rate at low pH is consistent with acid catalysis, probably assisting hydrolytic ring opening as the slow step. […]

[3] = Uptake of pentyl carbamate relative to Dox, flow cytometry, with and without fetal bovine serum; format: cell-based; settings: 10% fetal bovine serum, flow cytometry, 3 h
Method: Uptake of the pentyl carbamate relative to uptake of Dox was measured by flow cytometry, monitoring fluorescence of the Dox fluorophore as a measure of drug in cells. The measurements were performed over a period of 3 h in the presence and absence of fetal bovine serum, and the results are shown in FIG. 4. […] Further, the presence of 10% fetal bovine serum decreased the uptake of doxorubicin and the pentyl carbamate by about 25%. The more rapid uptake of the pentyl carbamate in the presence and absence of serum probably reflects its increased hydrophobicity relative to that of doxorubicin which is a cation at physiological pH. Increased hydrophobicity may also be the explanation for the effect of serum on the uptake of the carbamate; namely, the carbamate binds to serum proteins reducing drug uptake.

[4] = tested on: SK-HEP-1 liver cancer cells; assay: Drug uptake by SK-HEP-1 cells, flow cytometry; format: cell-based; settings: in the presence of fetal bovine serum
Method: Uptake of pentyl PABC-Doxaz and Dox by multidrug resistant MCF-7/Adr breast cancer cells and SK-HEP-1 liver cancer cells in the presence of fetal bovine serum was determined by flow cytometry using drug fluorescence as a measure of drug in cells.

**Q.** With `COc1cccc2c1C(=O)c1c(O)c3c(c(O)c1C2=O)C[C@@](O)(C(=O)CO)C[C@@H]3O[C@H]1C[C@@H]2NCO[C@@H]2[C@H](C)O1` [Doxaz, Doxazolidine] as the compound, how does the “Improvement relative to Doxorubicin in a clinical trial” value [1] read?
**A.** 75%

**Q.** And the half-life at 100 µM ([2]; 20 mM TEAA buffer, pH 7.4, aqueous media, pH 7.4, 37° C., extrapolated from 14° C. (rate doubles per 10° C.), read-out: Half-life for hydrolysis of Doxaz to Doxorubicin at 37° C.)?
**A.** 3 to 4 min

**Q.** And the half-life at 100 µM ([2]; 20 mM TEAA buffer, pH 7.5, pH 7.5, 14° C., 20 mM TEAA buffer, read-out: Half-life for hydrolysis of Doxaz to Doxorubicin at 14° C.)?
**A.** 16 min

**Q.** And the half-life at 100 µM ([2]; 20 mM triethylammonium acetate (TEAA) buffer, pH 7.4, after prodrug activation near a tumor / in vivo, read-out: Half-life of Doxaz (conversion to Doxorubicin) after release)?
**A.** ~3 min

**Q.** Which “Decrease of uptake by 10% fetal bovine serum” value [3] does the source give for `COc1cccc2c1C(=O)c1c(O)c3c(c(O)c1C2=O)C[C@@](O)(C(=O)CO)C[C@@H]3O[C@H]1C[C@H](N)[C@H](O)[C@H](C)O1` [Doxorubicin, reference compound] here?
**A.** about 25%

**Q.** Which “Uptake relative to Dox, SK-HEP-1” value [4] does the source give for `CCCCCOC(=O)Nc1ccc(COC(=O)N2COC3C(C)OC(OC4CC(O)(C(=O)CO)Cc5c(O)c6c(c(O)c54)C(=O)c4c(OC)cccc4C6=O)CC32)cc1` (stereo not drawn) [Pentyl PABC-Doxaz, Pentyl 4-(N-doxazolidinylcarbonyloxymethyl)phenylcarbamate] here?
**A.** taken up much better
